Read-outs that look alike come from different tables or passages of the source.
Biological target: Rev-RRE complexes (recombinant Rev protein, synthetic 32P-labelled RRE RNA) (Human immunodeficiency virus type 1 group M subtype B, UniProt P04618)
Assay: Rev-RRE binding inhibition, nitrocellulose filter binding assay with scintillation counting
Parameters: species or system Human Immunodeficiency Virus (HIV)
Description: The array was assayed in parallel at 6 ug/mL in reaction mixtures containing recombinant Rev protein, synthetic 32P-labelled RRE RNA, and a non-specific competitor RNA. The reaction is then filtered through nitrocellulose filters and washed with a low salt binding buffer. Rev-RRE complexes are retained in the filter while the unbound RRE filters through. Rev-RRE complexes retained in the filter are then quantified by scintillation counting. The percentage of inhibition is calculated according to the formula: […]
where CPM1 is the activity obtained in the presence of the drug and CPM0 is the average activity in the absence of the drug. […] Raising the criterion of interest to 90% inhibition of complex formation afforded a set of 55 compounds which were examined for common functionality. These 55 compounds and their inhibition values are listed in the following table, where A, B, and C are the structural diversity elements of the scaffold: […]

[1] = array assayed at 6 ug/mL, non-specific competitor RNA, read-out: % inh
[2] = read-out: % inh, array assayed at 6 ug/mL, non-specific competitor RNA

Sequence of Rev-RRE complexes (recombinant Rev protein, synthetic 32P-labelled RRE RNA) (P04618 whole entry, looked up, one chain of several): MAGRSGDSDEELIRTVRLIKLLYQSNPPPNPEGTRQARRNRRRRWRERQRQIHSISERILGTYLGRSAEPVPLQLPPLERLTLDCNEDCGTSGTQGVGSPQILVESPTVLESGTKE

O=C(NC(c1ccccc1)c1ccccc1)/C(=C/c1ccc(-c2ccccc2)cc1)NC(=O)c1ccc(Cl)cc1Cl
inhibition at 6 µg/mL [1]: 96%

Cc1ccc(CCNC(=O)/C(=C/c2cccc(Oc3ccccc3)c2)NC(=O)c2ccc(Cl)cc2Cl)cc1
inhibition at 6 µg/mL [1]: 95%

O=C(NC1CCc2ccccc21)/C(=C/c1ccc(-c2ccccc2)cc1)NC(=O)c1ccc(Cl)cc1Cl (stereo not shown)
inhibition at 6 µg/mL [1]: 90%

O=C(NC1CCCCC1)/C(=C/c1ccccc1)NC(=O)c1ccc(Cl)cc1Cl [2,4-dichlorophenyl / phenyl / cyclohexyl]
inhibition at 6 µg/mL [1]: 98%

Cc1ccc(C(=O)N/C(=C\c2ccc(F)cc2F)C(=O)NCC(O)c2ccccc2)cc1 (stereo not shown)
inhibition at 6 µg/mL [1]: 96%

O=C(N/C(=C\c1cccc(Oc2ccccc2)c1)C(=O)N1CCN(c2ccccc2)CC1)c1ccc(C(F)(F)F)cc1
inhibition at 6 µg/mL [1]: 90%

O=C(NCC(c1ccccc1)c1ccccc1)/C(=C/c1cccc(C(F)(F)F)c1)NC(=O)c1ccc(Cl)cc1Cl
inhibition at 6 µg/mL [1]: 93%

O=C(NC1CCc2ccccc21)/C(=C/c1cccc(C(F)(F)F)c1)NC(=O)c1ccc2ccccc2c1 (stereo not shown)
inhibition at 6 µg/mL [1]: 92%

O=C(Nc1cccnc1)/C(=C/c1cc(F)cc(F)c1)NC(=O)c1ccc(Cl)cc1Cl
inhibition at 6 µg/mL [2]: 91%

O=C(NCc1ccccc1)/C(=C/c1ccc(-c2ccccc2)cc1)NC(=O)c1ccc(Cl)cc1Cl
inhibition at 6 µg/mL [1]: 94%

CC(CCc1ccccc1)NC(=O)/C(=C/c1ccc(C(F)(F)F)cc1)NC(=O)c1ccc2ccccc2c1 (stereo not shown)
inhibition at 6 µg/mL [2]: 96%

O=C(NC(c1ccccc1)c1ccccc1)/C(=C/c1cccc(Oc2ccccc2)c1)NC(=O)c1ccc(C(F)(F)F)cc1
inhibition at 6 µg/mL [1]: 94%

CC(C)CC(CO)NC(=O)/C(=C/c1cccc(C(F)(F)F)c1)NC(=O)c1ccc2ccccc2c1 (stereo not shown)
inhibition at 6 µg/mL [1]: 94%

O=C(NC(c1ccccc1)c1ccccc1)/C(=C/c1cccc(Cl)c1)NC(=O)c1ccc2ccccc2c1
inhibition at 6 µg/mL [1]: 92%

O=C(NC1CCCc2ccccc21)/C(=C/c1ccc(C(F)(F)F)cc1)NC(=O)c1ccc(C(F)(F)F)cc1 (stereo not shown)
inhibition at 6 µg/mL [1]: 94%

Cc1ccc(CCNC(=O)/C(=C/c2ccc(C(F)(F)F)cc2)NC(=O)c2ccc(C(F)(F)F)cc2)cc1
inhibition at 6 µg/mL [1]: 95%

O=C(NC1CCCc2ccccc21)/C(=C/c1cccc(Oc2ccccc2)c1)NC(=O)c1ccc(C(F)(F)F)cc1 (stereo not shown)
inhibition at 6 µg/mL [1]: 90%

O=C(NCC(c1ccccc1)c1ccccc1)/C(=C/c1ccc(F)cc1)NC(=O)c1ccc2ccccc2c1
inhibition at 6 µg/mL [1]: 90%

Cc1ccc(C(=O)N/C(=C\c2ccccc2Cl)C(=O)NCc2cccc3ccccc23)cc1
inhibition at 6 µg/mL [1]: 90%

O=C(NC1CCCc2ccccc21)/C(=C/c1ccc(-c2ccccc2)cc1)NC(=O)c1ccc(Cl)cc1Cl (stereo not shown)
inhibition at 6 µg/mL [1]: 92%

O=C(NC1CCCc2ccccc21)/C(=C/c1ccc(OC(F)(F)F)cc1)NC(=O)c1ccc2ccccc2c1 (stereo not shown)
inhibition at 6 µg/mL [1]: 94%

O=C(NCCc1ccccc1)/C(=C/c1ccc(-c2ccccc2)cc1)NC(=O)c1ccc(Cl)cc1Cl
inhibition at 6 µg/mL [1]: 91%

Cc1ccc(CCNC(=O)/C(=C/c2ccc(-c3ccccc3)cc2)NC(=O)c2ccc(Cl)cc2Cl)cc1
inhibition at 6 µg/mL [1]: 94%

O=C(NCC(c1ccccc1)c1ccccc1)/C(=C/c1ccc(C(F)(F)F)cc1)NC(=O)c1ccc2ccccc2c1
inhibition at 6 µg/mL [1]: 95%

Cc1ccc(CCNC(=O)/C(=C/c2cccc(C(F)(F)F)c2)NC(=O)c2ccc3ccccc3c2)cc1
inhibition at 6 µg/mL [1]: 96%

O=C(NC1CCCc2ccccc21)/C(=C/c1ccc(C(F)(F)F)cc1)NC(=O)c1ccc2ccccc2c1 (stereo not shown)
inhibition at 6 µg/mL [1]: 95%

Cc1ccc(C(=O)N/C(=C\c2ccccc2Cl)C(=O)NCCCN2CCOCC2)cc1
inhibition at 6 µg/mL [1]: 95%

O=C(N/C(=C\c1ccc(C(F)(F)F)cc1)C(=O)N1CCN(c2cccc(C(F)(F)F)c2)CC1)c1ccc(Cl)cc1Cl
inhibition at 6 µg/mL [1]: 90%

O=C(NC1CCCc2ccccc21)/C(=C/c1cccc(C(F)(F)F)c1)NC(=O)c1ccc(Cl)cc1Cl (stereo not shown)
inhibition at 6 µg/mL [1]: 90%

O=C(Nc1cccnc1)/C(=C/c1ccc(Cl)cc1Cl)NC(=O)c1ccc2ccccc2c1
inhibition at 6 µg/mL [1]: 91%

O=C(NCc1cccc2ccccc12)/C(=C/c1cccc(C(F)(F)F)c1)NC(=O)c1ccc2ccccc2c1
inhibition at 6 µg/mL [1]: 94%

O=C(Nc1cccnc1)/C(=C/c1ccccc1F)NC(=O)c1ccccc1 [phenyl / 2-fluorophenyl / 3-pyridinyl]
inhibition at 6 µg/mL [1]: 91%

O=C(NCC(O)c1ccccc1)/C(=C/c1ccc(Cl)cc1Cl)NC(=O)c1ccc2ccccc2c1 (stereo not shown)
inhibition at 6 µg/mL [1]: 95%

O=C(NC1CCCc2ccccc21)/C(=C/c1cccc(C(F)(F)F)c1)NC(=O)c1ccc2ccccc2c1 (stereo not shown)
% inh (array assayed at 6 ug/mL, non-specific competitor RNA, listed as 2-napbthyl / α,α,α-trifluoro-m-toluyl / 1,2,3,4-tetrahydronaphth-1-yl): 90%
inhibition at 6 µg/mL [1]: 97%

O=C(NCCCc1ccccc1)/C(=C/c1ccc(C(F)(F)F)cc1)NC(=O)c1ccc2ccccc2c1
inhibition at 6 µg/mL [1]: 91%

O=C(N/C(=C\c1ccc(C(F)(F)F)cc1)C(=O)N1CCN(c2ccccc2)CC1)c1ccc(C(F)(F)F)cc1
inhibition at 6 µg/mL [1]: 91%

O=C(NC(c1ccccc1)c1ccccc1)/C(=C/c1ccc(C(F)(F)F)cc1)NC(=O)c1ccc2ccccc2c1
inhibition at 6 µg/mL [2]: 96%

O=C(NCc1cccc2ccccc12)/C(=C/c1ccc(F)cc1F)NC(=O)c1ccc2ccccc2c1
inhibition at 6 µg/mL [1]: 93%

O=C(NCc1cccc2ccccc12)/C(=C/c1ccc(-c2ccccc2)cc1)NC(=O)c1ccc(Cl)cc1Cl
inhibition at 6 µg/mL [1]: 90%

O=C(NC(c1ccccc1)c1ccccc1)/C(=C/c1cccc(C(F)(F)F)c1)NC(=O)c1ccc2ccccc2c1
% inh (array assayed at 6 ug/mL, non-specific competitor RNA): 93%
inhibition at 6 µg/mL [1]: 96%

O=C(NCC(c1ccccc1)c1ccccc1)/C(=C/c1cc(F)cc(F)c1)NC(=O)c1ccc(Cl)cc1Cl
inhibition at 6 µg/mL [1]: 94%

O=C(NC(c1ccccc1)c1ccccc1)/C(=C/c1cccc(C(F)(F)F)c1)NC(=O)c1ccc(Cl)cc1Cl
inhibition at 6 µg/mL [1]: 96%

O=C(NC(c1ccccc1)c1ccccc1)/C(=C/c1ccc(OC(F)(F)F)cc1)NC(=O)c1ccc2ccccc2c1
inhibition at 6 µg/mL [1]: 96%

COc1cccc(/C=C(\NC(=O)c2ccc3ccccc3c2)C(=O)NCCc2ccccc2)c1 [2-naphthyl / m-anisyl / phenethyl]
inhibition at 6 µg/mL [1]: 91%

O=C(N/C(=C\c1ccc(C(F)(F)F)cc1)C(=O)N1CCC(Cc2ccccc2)CC1)c1ccc2ccccc2c1
inhibition at 6 µg/mL [1]: 91%

O=C(N/C(=C\c1cccc(C(F)(F)F)c1)C(=O)N1CCC(Cc2ccccc2)CC1)c1ccc2ccccc2c1
inhibition at 6 µg/mL [1]: 95%

O=C(NCc1cccc2ccccc12)/C(=C/c1cnc2ccccc2c1)NC(=O)c1ccc2ccccc2c1
inhibition at 6 µg/mL [1]: 96%

O=C(NCc1ccco1)/C(=C/c1cccc(C(F)(F)F)c1)NC(=O)c1ccc2ccccc2c1
inhibition at 6 µg/mL [1]: 93%

COc1cccc(/C=C(\NC(=O)c2ccc3ccccc3c2)C(=O)NC(c2ccccc2)c2ccccc2)c1 [2-naphthyl / m-anisyl / diphenylmethyl]
inhibition at 6 µg/mL [1]: 94%

O=C(NCC(c1ccccc1)c1ccccc1)/C(=C/c1cccc(C(F)(F)F)c1)NC(=O)c1ccc2ccccc2c1
inhibition at 6 µg/mL [1]: 93%

O=C(NC1CCc2ccccc21)/C(=C/c1ccc(C(F)(F)F)cc1)NC(=O)c1ccc2ccccc2c1 (stereo not shown)
inhibition at 6 µg/mL [1]: 92%

O=C(NC1CCCc2ccccc21)/C(=C/c1ccc(Cl)cc1)NC(=O)c1ccc(C(F)(F)F)cc1 (stereo not shown)
inhibition at 6 µg/mL [1]: 92%

CCC(CC)NC(=O)/C(=C/c1cccc(C(F)(F)F)c1)NC(=O)c1ccc2ccccc2c1
inhibition at 6 µg/mL [1]: 93%

Source: patent US5807754A, “Combinatorial synthesis and high-throughput screening of a Rev-inhibiting arylidenediamide array” (Arqule, Inc., priority 1995, dated 1998)
